pIC50: −log10 of the molar value.
Tests used:
[1] = target: Serotonin (5-Hydroxytryptamine) 5-HT2B (Homo sapiens, UniProt P41595); experiment: Lead Profiling Screen – Eurofins Panlabs; type: binding; settings: read-out: % inh at 10 μM
CYP 2D6 = target: T1, CYP 2D6 (Homo sapiens, UniProt P10635); experiment: P450 inhibition in pooled human liver microsomes; type: in vitro ADME; settings: pooled HLM, NADPH, CYP-specific probe substrates
T1 construct: from tissue; host or cells: pooled human liver microsomes (according to the earlier reading)
T1 sequence (P10635 whole entry): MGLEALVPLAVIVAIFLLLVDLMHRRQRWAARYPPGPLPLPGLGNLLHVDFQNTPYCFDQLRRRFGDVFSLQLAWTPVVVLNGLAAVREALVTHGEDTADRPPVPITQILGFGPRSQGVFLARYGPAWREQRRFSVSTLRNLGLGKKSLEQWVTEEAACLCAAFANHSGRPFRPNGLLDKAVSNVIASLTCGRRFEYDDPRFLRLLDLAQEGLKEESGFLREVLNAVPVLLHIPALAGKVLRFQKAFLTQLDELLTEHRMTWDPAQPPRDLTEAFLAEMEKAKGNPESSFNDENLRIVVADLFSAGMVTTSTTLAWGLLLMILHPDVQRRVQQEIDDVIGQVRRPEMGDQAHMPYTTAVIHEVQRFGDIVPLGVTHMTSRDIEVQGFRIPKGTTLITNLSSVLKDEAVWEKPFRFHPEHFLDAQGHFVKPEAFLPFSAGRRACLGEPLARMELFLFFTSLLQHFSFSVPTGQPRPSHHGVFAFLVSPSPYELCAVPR

Prostanoid EP4 = Prostanoid EP4 (Homo sapiens, UniProt P35408); experiment: Lead Profiling Screen – Eurofins Panlabs; type: binding; settings: read-out: % inh at 10 μM
Sequence of Prostanoid EP4 (P35408 whole entry): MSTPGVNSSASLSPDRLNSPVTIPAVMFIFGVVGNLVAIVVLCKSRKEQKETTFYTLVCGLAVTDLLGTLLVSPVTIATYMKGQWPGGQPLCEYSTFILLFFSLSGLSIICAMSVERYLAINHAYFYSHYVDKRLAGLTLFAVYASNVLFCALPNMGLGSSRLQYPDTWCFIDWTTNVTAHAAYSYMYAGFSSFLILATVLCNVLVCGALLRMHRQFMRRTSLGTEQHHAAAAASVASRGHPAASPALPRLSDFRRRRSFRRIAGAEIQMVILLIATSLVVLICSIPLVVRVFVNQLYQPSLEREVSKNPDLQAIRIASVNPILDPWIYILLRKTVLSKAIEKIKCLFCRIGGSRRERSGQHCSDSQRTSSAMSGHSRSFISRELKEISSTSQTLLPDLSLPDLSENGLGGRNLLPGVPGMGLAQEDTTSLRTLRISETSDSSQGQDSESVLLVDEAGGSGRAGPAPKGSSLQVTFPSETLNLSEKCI

[2] = tested on: GABAA, Flunitrazepam, Central; experiment: Lead Profiling Screen – Eurofins Panlabs; type: binding, rat
Muscarinic M2 = Muscarinic M2 (Homo sapiens, UniProt P08172); experiment: Lead Profiling Screen – Eurofins Panlabs; type: binding; settings: read-out: % inh at 10 μM
Sequence of Muscarinic M2 (P08172 whole entry): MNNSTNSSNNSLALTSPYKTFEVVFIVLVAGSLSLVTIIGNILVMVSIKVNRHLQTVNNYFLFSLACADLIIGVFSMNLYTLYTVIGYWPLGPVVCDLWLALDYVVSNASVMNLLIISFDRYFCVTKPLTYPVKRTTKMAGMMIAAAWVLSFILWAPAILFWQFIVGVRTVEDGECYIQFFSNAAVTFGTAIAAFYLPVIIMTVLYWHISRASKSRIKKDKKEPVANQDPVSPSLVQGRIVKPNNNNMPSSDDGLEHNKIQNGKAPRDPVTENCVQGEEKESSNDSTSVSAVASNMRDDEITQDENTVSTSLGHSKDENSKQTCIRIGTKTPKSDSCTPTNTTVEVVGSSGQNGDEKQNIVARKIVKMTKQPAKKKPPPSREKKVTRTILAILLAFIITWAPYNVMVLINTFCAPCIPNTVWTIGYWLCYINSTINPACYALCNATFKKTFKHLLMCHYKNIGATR

Bradykinin B2 = target: T2, Bradykinin B2 (Homo sapiens, UniProt P30411); experiment: Lead Profiling Screen – Eurofins Panlabs; type: binding; settings: read-out: % inh at 10 μM
T2 construct: Eurofins Panlabs (contract screen)
T2 sequence (P30411 whole entry): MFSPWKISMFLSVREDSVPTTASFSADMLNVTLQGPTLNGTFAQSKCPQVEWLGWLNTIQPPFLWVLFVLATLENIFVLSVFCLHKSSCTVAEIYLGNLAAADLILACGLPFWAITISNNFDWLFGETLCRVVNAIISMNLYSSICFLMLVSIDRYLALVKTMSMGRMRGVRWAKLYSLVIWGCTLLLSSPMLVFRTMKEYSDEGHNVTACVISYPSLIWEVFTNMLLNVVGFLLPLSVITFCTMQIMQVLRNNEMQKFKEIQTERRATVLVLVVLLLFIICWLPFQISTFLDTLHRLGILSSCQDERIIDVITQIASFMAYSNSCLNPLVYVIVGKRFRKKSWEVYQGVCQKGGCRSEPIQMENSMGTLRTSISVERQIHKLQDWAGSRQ

[3] = target: Transporter, Dopamine (DAT) (Homo sapiens, UniProt Q01959); experiment: Lead Profiling Screen – Eurofins Panlabs; type: binding; settings: read-out: % inh at 10 μM
Sequence of Transporter, Dopamine (DAT) (Q01959 whole entry): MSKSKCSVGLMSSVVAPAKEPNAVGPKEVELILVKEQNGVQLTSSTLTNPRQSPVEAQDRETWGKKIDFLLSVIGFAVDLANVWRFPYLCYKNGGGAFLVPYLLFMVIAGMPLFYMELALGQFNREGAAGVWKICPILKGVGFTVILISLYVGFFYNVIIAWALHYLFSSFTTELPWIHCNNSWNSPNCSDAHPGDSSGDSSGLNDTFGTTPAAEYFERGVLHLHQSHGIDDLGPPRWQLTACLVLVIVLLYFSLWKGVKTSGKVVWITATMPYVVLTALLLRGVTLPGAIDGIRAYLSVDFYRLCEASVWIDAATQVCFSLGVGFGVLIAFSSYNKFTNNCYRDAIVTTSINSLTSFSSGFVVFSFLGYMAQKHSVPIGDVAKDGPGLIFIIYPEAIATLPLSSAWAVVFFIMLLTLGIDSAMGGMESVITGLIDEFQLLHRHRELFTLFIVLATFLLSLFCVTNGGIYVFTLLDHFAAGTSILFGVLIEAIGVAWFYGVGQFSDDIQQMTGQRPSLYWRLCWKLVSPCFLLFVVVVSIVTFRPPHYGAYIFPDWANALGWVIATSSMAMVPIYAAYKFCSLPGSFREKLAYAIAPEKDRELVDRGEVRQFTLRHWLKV

[4] = Binding in brain homogenate from rat (equilibrium dialysis); type: in vitro ADME
Muscarinic M1 = Muscarinic M1 (Homo sapiens, UniProt P11229); experiment: Lead Profiling Screen – Eurofins Panlabs; type: binding; settings: read-out: % inh at 10 μM
Sequence of Muscarinic M1 (P11229 whole entry): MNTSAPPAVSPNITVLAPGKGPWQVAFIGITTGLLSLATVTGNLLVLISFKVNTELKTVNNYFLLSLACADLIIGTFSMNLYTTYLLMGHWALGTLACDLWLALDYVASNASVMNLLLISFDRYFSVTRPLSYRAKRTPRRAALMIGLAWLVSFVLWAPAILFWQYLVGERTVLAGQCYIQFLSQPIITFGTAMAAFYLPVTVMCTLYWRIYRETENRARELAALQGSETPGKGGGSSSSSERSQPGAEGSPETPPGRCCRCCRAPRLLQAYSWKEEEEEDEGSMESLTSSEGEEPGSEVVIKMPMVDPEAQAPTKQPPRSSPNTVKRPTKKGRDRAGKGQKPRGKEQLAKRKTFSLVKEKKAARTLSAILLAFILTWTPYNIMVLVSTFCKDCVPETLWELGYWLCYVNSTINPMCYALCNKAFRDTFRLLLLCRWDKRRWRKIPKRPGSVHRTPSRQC

Adenosine A2A = target: T3, Adenosine A2A (Homo sapiens, UniProt P29274); experiment: Lead Profiling Screen – Eurofins Panlabs; type: binding; settings: read-out: % inh at 10 μM
T3 construct: Eurofins Panlabs
T3 sequence (P29274 whole entry): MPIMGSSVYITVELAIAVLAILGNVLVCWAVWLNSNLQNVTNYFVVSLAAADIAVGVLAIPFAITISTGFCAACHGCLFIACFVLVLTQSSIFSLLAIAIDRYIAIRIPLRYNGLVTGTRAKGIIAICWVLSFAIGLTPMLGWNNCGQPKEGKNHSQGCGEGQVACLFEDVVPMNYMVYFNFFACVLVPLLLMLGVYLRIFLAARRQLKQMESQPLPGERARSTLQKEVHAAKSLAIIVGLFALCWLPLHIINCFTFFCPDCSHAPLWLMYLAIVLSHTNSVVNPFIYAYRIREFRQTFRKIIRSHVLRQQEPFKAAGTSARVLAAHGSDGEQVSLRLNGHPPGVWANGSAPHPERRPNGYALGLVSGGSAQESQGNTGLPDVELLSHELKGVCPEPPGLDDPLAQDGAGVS

Thyroid Hormone = experiment: Lead Profiling Screen – Eurofins Panlabs; type: binding, rat
In vivo dog iv/po PK = experiment: In vivo dog iv/po PK
Protocol: Intravenous pharmacokinetics and plasma-brain level determination (IV PK PBL) VU6016235 […]
For dog PK, VU6016235 was formulated in 10% (2-Hydroxypropyl)-beta-cyclodextrin (HPbCD) at a concentration of 0.5 mg/ml and administered as a single dose of 0.5 mg/kg to male beagles (1 ml/kg, n=3).
Blood samples were collected serially from a surgically implanted carotid artery catheter in each animal over multiple post-administration time points (0.033, 0.117, 0.25, 0.5, 1, 2, 4, 7, and 24 hours) into chilled, K2EDTA anticoagulant-fortified tubes and immediately placed on wet ice. […]
over multiple post-administration time points (0.25, 0.5, 1, 2, 4, 7, and 24 hours) into chilled, K2EDTA anticoagulant-fortified tubes and immediately placed on wet ice. The blood samples were then centrifuged (1700 rcf, 5 minutes, 4 °C) in order to obtain plasma samples, which were stored at -80 °C until analysis […]
Samples preparation for bioanalysis
Plasma samples from the in-life phase of the study were thawed at ambient temperature (benchtop), and then aliquots (20 µL per sample) were transferred to a 96-shallow-well (V-bottom) plate. Matrix-matched quality control (QC) samples and a standard curve of […] (1 mg/mL DMSO stock solution) were prepared in blank rat plasma (K2EDTA-treated) or blank brain homogenate via serial dilution and transferred (20 µL each) to the plate along with multiple blank plasma and brain homogenate samples. Acetonitrile (120 µL) containing IS (10 nM carbamazepine) was added to each well of the plate to precipitate protein. The plate was then centrifuged (4000 rcf, 5 minutes, ambient temperature), and resulting supernatants (60 µL each) were transferred to a new 96-shallow-well (V-bottom) plate containing an equal volume (60 µL per well) of water (Milli-Q purified). […]
The plasma standard curve and QCs were used for compounds quantitation in brain.
Binding in plasma from rat and human.
Determination of compounds’ fraction unbound (f u) in plasma from rat and human was conducted in vitro via equilibrium dialysis using HTDialysis membrane plates. Dialysis membranes (four paired strips per HTD assay) were hydrated as described by the manufacturer and inserted into the HTD plate, which was assembled and prepared for sample addition by the dispensing of blank buffer (DPBS, 100 µL/well) into the ‘top half’ of each membrane-split well. Each compound was diluted into plasma from each species (5 µM final concentration), which was aliquoted in triplicate to the ‘bottom half’ of the prepared HTD plate wells. The HTD plate was sealed and incubated for 6 hours at 37 °C. Following incubation, each well (both top and bottom halves) were transferred (20 µL) to the corresponding wells of a 96-shallow-well (V-bottom) plate. The daughter plates were then matrix-matched (buffer side wells received equal volume of plasma, and plasma side wells received equal volume of buffer), and extraction solution (120 µL; acetonitrile containing 50 nM carbamazepine as IS) was added to all wells of both daughter plates to precipitate protein and extract test article. The plates were then sealed and centrifuged (3500 rcf) for 10 minutes at ambient temperature. Supernatant (60 µL) from each well of the daughter plates was then transferred to the corresponding wells of new daughter plates (96-shallow-well, V bottom) containing water (Milli-Q, 60 µL/well), and the plates were sealed in preparation for LC-MS/MS analysis (see below). fu was calculated as (analyte to IS MS peak area ratio from Trans-buffer side) / (analyte to IS MS peak area ratio from Cis-plasma side). Mean values for each species were calculated from 3 replicates.

Adrenergic α1A = target: T4, Adrenergic α1A (Rattus norvegicus, UniProt P43140); experiment: Lead Profiling Screen – Eurofins Panlabs; type: binding; settings: read-out: % inh at 10 μM
T4 construct: Eurofins Panlabs
T4 sequence (P43140 whole entry): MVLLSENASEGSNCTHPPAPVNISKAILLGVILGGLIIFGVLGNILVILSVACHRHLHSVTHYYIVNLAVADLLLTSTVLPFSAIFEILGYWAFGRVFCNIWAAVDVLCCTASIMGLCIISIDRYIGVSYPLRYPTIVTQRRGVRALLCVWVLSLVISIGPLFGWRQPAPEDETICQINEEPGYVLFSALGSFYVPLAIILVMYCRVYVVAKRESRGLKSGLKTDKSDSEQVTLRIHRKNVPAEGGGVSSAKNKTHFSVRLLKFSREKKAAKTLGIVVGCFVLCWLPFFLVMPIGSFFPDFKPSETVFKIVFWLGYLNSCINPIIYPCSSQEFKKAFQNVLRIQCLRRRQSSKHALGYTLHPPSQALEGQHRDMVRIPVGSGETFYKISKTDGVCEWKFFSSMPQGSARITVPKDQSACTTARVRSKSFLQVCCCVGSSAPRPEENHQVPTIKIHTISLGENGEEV

human M1 = human M1 (Homo sapiens, UniProt P11229); experiment: Calcium mobilization assay, muscarinic selectivity; type: cell-based
Sequence of human M1 (P11229 whole entry): as the sequence (P11229 whole entry) above

Adrenergic α1D = target: T5, Adrenergic α1D (Homo sapiens, UniProt P25100); experiment: Lead Profiling Screen – Eurofins Panlabs; type: binding; settings: read-out: % inh at 10 μM
T5 construct: Eurofins Panlabs (contract screen)

Histamine H1 = Histamine H1 (Homo sapiens, UniProt P35367); experiment: Lead Profiling Screen – Eurofins Panlabs; type: binding; settings: read-out: % inh at 10 μM
Sequence of Histamine H1 (P35367 whole entry): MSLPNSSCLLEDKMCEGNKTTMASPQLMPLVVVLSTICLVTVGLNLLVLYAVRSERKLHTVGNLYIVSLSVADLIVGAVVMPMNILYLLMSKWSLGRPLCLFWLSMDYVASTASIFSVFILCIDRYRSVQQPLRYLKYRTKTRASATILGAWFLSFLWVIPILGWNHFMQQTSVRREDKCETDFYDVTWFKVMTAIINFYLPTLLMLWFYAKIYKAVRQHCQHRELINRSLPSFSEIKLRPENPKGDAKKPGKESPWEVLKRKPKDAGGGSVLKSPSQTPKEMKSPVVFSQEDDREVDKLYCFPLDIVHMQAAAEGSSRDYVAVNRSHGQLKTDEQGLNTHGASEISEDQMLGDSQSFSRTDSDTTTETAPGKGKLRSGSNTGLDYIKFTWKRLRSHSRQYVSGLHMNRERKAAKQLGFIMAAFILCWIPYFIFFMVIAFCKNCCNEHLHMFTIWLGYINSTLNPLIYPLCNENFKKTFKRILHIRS

Adrenergic β2 = target: T6, Adrenergic β2 (Homo sapiens, UniProt P07550); experiment: Lead Profiling Screen – Eurofins Panlabs; type: binding; settings: read-out: % inh at 10 μM
T6 construct: Eurofins Panlabs (contract screen)

[5] = male, plasma, dog (beagle), iv 0.5 mg/kg
[6] = male, plasma, dog (beagle), po 1.0 mg/kg, fasted

Sequence of Serotonin (5-Hydroxytryptamine) 5-HT2B (P41595 whole entry): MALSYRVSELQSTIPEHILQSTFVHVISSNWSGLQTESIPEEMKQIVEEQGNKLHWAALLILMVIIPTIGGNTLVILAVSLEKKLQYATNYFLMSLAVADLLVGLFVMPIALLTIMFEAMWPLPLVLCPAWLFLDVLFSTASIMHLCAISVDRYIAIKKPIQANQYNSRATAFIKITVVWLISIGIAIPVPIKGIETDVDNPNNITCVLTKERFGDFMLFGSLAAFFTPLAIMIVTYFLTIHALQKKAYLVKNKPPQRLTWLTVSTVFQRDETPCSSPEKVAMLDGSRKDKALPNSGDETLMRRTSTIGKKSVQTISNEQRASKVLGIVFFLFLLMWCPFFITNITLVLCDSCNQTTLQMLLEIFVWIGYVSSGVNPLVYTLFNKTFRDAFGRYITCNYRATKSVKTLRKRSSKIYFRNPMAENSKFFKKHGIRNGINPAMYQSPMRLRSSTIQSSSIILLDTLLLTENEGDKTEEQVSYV

Cc1nc(C)c2c(n1)sc1c(NCc3ccc(C(C)(C)O)cc3)nccc12 [22g]
inhibition at 10 µM [1]: 16% | pIC50 (CYP 2D6): < 4.52 | inhibition at 10 µM (Prostanoid EP4): 16% | % inh at 10 μM [2]: 13% | inhibition at 10 µM (Muscarinic M2): 10% | inhibition at 10 µM (Bradykinin B2): -1% | inhibition at 10 µM [3]: 25% | rat fbrain ([4]; fraction unbound, equilibrium dialysis, rat brain homogenates): 0.016 | fraction unbound at 6 h, 1 µM ([4]; rat, brain homogenate, in %, read-out: fu,brain (rat brain homogenate)): 0.01 to 0.05 | inhibition at 10 µM (Muscarinic M1): 0% | inhibition at 10 µM (Adenosine A2A): 28% | % inh at 10 μM (Thyroid Hormone): 1% | plasma clearance as % hepatic blood flow (In vivo dog iv/po PK; dog): ~78 % hepatic blood flow | CLp (In vivo dog iv/po PK; dog (beagle), iv 0.5 mg/kg, listed as VU6016235, 0.5 mg/kg): 23.8 mL/min/kg | clearance (In vivo dog iv/po PK; male, beagle, dog, plasma, iv, 0.5 mg/kg, dog (beagle), iv 0.5 mg/kg, read-out: CLp): ~24 mL/min/kg | MRT (In vivo dog iv/po PK; [5]): 1.6 h | half-life (In vivo dog iv/po PK; [5]): 2.4 h | Vd (In vivo dog iv/po PK; male, plasma, dog (beagle), iv 0.5 mg/kg, read-out: Vss): 2.3 L/kg | AUC(0-inf) (In vivo dog iv/po PK; [6]): 200 ng·h/mL | Cmax (In vivo dog iv/po PK; [6]): 62.4 ng/mL | Tmax (In vivo dog iv/po PK; [6]): 0.83 h | bioavailability (In vivo dog iv/po PK; [6]): 27.5% | inhibition at 10 µM (Adrenergic α1A): 3% | human M1 %Ach Max (human M1): inactive | human M1 EC50 (human M1): inactive | inhibition at 10 µM (Adrenergic α1D): 5% | inhibition at 10 µM (Histamine H1): -11% | inhibition at 10 µM (Adrenergic β2): -5%

Reference: publication PMC11487561 (ACS Chemical Neuroscience, 2024)
